Test [1] addresses T1, RosC lacking the N-terminal 21 residues (Micromonospora rosaria, UniProt I7HHD0).
T1 construct: N-terminal 21 residues deleted, His-tag cut with thrombin, expressed in E. coli BL21(DE3); crystallization construct
Description: X-ray crystal structure. The test is classed as binding. The note with it: 2.3 Å; active site, C-20 oriented toward heme iron.

The target of test [2] is T2, NHis-RosC (Micromonospora rosaria, UniProt I7HHD0).
T2 construct: full-length, N-terminal His-tag kept (pET28b), expressed in E. coli BL21(DE3)
Nature of the test: spectral substrate-binding assay (difference spectra). The settings on record: 50 mM Tris-HCl pH 7.5, 20% glycerol, room temperature, 1 μM enzyme; Type II spectral change.

Test [3] addresses T3, NHis-RosC (Micromonospora rosaria, UniProt I7HHD0, P107S/L176Q).
T3 construct: full-length, N-terminal His-tag kept (pET28b), expressed in E. coli BL21(DE3)
The description is as above. The note with it: 50 mM Tris-HCl pH 7.5, 20% glycerol, room temperature, 1 μM enzyme; Type II spectral change.

As to `CC[C@H]1OC(=O)C[C@@H](O)[C@H](C)[C@@H](O[C@@H]2O[C@H](C)C[C@H](N(C)C)[C@H]2O)[C@@H](CC=O)C[C@@H](C)C(=O)/C=C/[C@]2(C)O[C@H]2[C@@H]1C` [RS], the X-ray crystal structure entry in test [1] is “crystal structures of the RosC in complex with RS-A and RS”.

The Kd is the free concentration of one partner at which half of the binding sites on the other are occupied at equilibrium, for simple one-to-one binding. Lower therefore signals a tighter complex. Turning to `CC[C@H]1C[C@@H](C)C(=O)/C=C/[C@]2(C)O[C@H]2[C@H](C)[C@@H](CC)OC(=O)C[C@@H](O)[C@H](C)[C@H]1O[C@@H]1O[C@H](C)C[C@H](N(C)C)[C@H]1O` [RS-B], the Kd amounted to 1.4 ± 0.3 µM at NHis-RosC [2] and 1 ± 0.2 µM at NHis-RosC [3]. For the same compound, in test [1], the X-ray crystal structure entry was “The crystal structure of RosC bound to RS-B”. In the case of `CC[C@H]1OC(=O)C[C@@H](O)[C@H](C)[C@@H](O[C@@H]2O[C@H](C)C[C@H](N(C)C)[C@H]2O)[C@@H](CCO)C[C@@H](C)C(=O)/C=C/[C@]2(C)O[C@H]2[C@@H]1C` [RS-A], the X-ray crystal structure result in test [1] is “crystal structures of the RosC in complex with RS-A and RS”.

The record behind these values is article PMC12696090, “Enzyme engineering of cytochrome P450 RosC provides mechanistic insights into factors controlling iterative oxidation” (Applied Microbiology and Biotechnology, 2025).
